Measured values: patent publication US10301664B2, “Repurposing non-antimicrobial drugs and clinical molecules to treat bacterial infections” (Purdue Research Foundation, priority 2015, dated 2019)

How the values were obtained:
K. pneumonia = test: MIC against G-ve with and without colistin: K. pneumonia; format: cell-based
[1] = system: MRSA USA300 persister cells tolerant to ciprofloxacin; test: Killing of S. aureus persister cells; format: cell-based; settings: added after ciprofloxacin treatment; 48 h
P. aeruginosa = test: MIC against G-ve with and without colistin: P. aeruginosa; format: cell-based
[2] = system: VRE (14) clinical isolates; test: MIC against Gram +ve clinical isolates: VRE; format: cell-based, enterococcus
[3] = system: intracellular MRSA USA300 in J774A.1 cells; test: Activity against intracellular MRSA in J774A.1 cells; format: cell-based; settings: compared to vancomycin and linezolid
[4] = system: E. coli cellular extracts (bacterial translation process); test: Bacterial transcription and translation assay, luciferase readout; format: biochemical
From the text: For bacterial protein-synthesis inhibition, E. coli cellular extracts in a transcription and translation assay were used to monitor protein production via luciferase readout.
(§1) In this Example, we tested the effects of the two drugs on bacterial, mammalian and mitochondrial protein-synthesis. For bacterial protein-synthesis inhibition, we used E. coli cellular extracts in a transcription and translation assay that monitors protein production via luciferase readout.

[5] = system: VISA and VRSA (14) clinical isolates; test: MIC against Gram +ve clinical isolates: VISA and VRSA; format: cell-based, S. aureus
S. Typhimurium = test: MIC against G-ve with and without colistin: S. Typhimurium; format: cell-based; settings: without colistin
[6] = system: multiple MRSA and VRSA strains; test: Synergy with conventional antimicrobials in vitro; format: cell-based, S. aureus; settings: most tested conventional antimicrobials, all tested strains (few exceptions such as VRSA5)
S. aureus biofilm = test: Reduction of adherent S. aureus biofilm; format: cell-based; settings: compared to linezolid, mupirocin, vancomycin, rifampicin
From the text: (§2) Biofilms are a major contributing factor to lack of healing of chronic wounds, as the matrix-embedded bacteria are recalcitrant to antibiotics and host immune response, rendering them extremely challenging and costly to treat.

[7] = system: MRSA USA300-0114 toxins hla and PVL; test: MRSA toxin production by ELISA; format: cell-based, S. aureus; settings: 1 hour incubation
S. epidermidis biofilm = test: Reduction of adherent S. epidermidis biofilm; format: cell-based; settings: compared to linezolid, mupirocin, vancomycin, rifampicin
From the text: as §2

[8] = system: pro-inflammatory cytokines (TNF-α, IL-6, IL-1β, MCP-1); test: Cytokines production in MRSA skin infection in mice; format: in vivo; settings: topical application
From the text: Each points represents single mice and each group has 5 mice. P values of (*P≤0.05) (**P≤0.01) are considered as significant. We investigated the immunomodulatory activity of Auranofin and ebselen in a topical application against MRSA skin infection in mice.
In this Example, we investigated the immunomodulatory activity of Auranofin and Ebselen in a topical application against MRSA skin infection in mice. […] These cytokines are thought to play a greater role in the severity of S. aureus skin infections more than the size of the bacterial burden and can lead to an infection persisting for a longer time period. Therefore, the ability of Auranofin and Ebselen reduces the production of these cytokines in the infected mice, indicating the clinical relevance of these drugs if used for antimicrobial treatment.

MRSA USA300 [9] = test: Mouse model of MRSA systemic infection (lethal); format: in vivo, BALB/c mice; settings: three doses
From the text: (§3) For MRSA systemic infection, neutropenic Female BALB/c mice were inoculated IP with 1×10^9 MRSA USA300.

[10] = system: MRSA (23) clinical isolates; test: MIC against Gram +ve clinical isolates: MRSA; format: cell-based, S. aureus; settings: for MIC50: MRSA (23)
A. baumannii = test: MIC against G-ve with and without colistin: A. baumannii; format: cell-based
S. aureus = test: Macromolecular synthesis (MMS): incorporation of radioactive precursors; format: cell-based
From the text: In this Example we examined the effect of Auranofin and Ebselen on incorporation of radioactive precursors into macromolecules in S. aureus.

MRSA USA300 [11] = test: Non-lethal MRSA infection mice model; format: in vivo; settings: two doses oral 0.25 mg/kg
From the text: as §3

[12] = system: Colistin resistant clinical isolates of P. aeruginosa; test: MIC against G-ve with and without colistin: colistin resistant P. aeruginosa; format: cell-based; settings: without colistin
MRSA USA300 [13] = test: Mouse-model of staphylococcal skin infection: bacterial load; format: in vivo, BALB/c mice; settings: topical 20 mg of 2% in petroleum jelly, twice a day for 5 days
Method: Auranofin and ebselen were evaluated in a mouse-model of staphylococcal skin infection. Seven groups of BALB/c mice (n=5) were inoculated with MRSA USA300 (4.3×10^9 CFU/ml) intradermally. 48 hours after infection and formation of open wound, four groups were treated topically with 20 mg of 2% Ebselen, 2% Auranofin, 2% mupirocin or 2% […] in petroleum jelly (ointment—skin protectant). Two groups were treated orally with either linezolid or clindamycin (25 mg/kg). The last group received the vehicles alone (petroleum jelly). All groups were treated twice a day for 5 days.
Since the clinical severity of bacterial skin infections is driven by the excess host pro-inflammatory cytokines rather than by bacterial burden, the recognized anti-inflammatory response of Auranofin and Ebselen combined with the potent antimicrobial, killing intracellular MRSA, and antibiofilm activities, should provide great advantage in the treatment of bacterial skin infection and wound healing. In this Example, we evaluated Auranofin and Ebselen in a mouse-model of staphylococcal skin infection. Seven groups of BALB/c mice (n=5) were inoculated with MRSA USA300 (4.3×10^9 CFU/ml) intradermally. 48 hours after infection and formation of open wound, four groups were treated topically with 20 mg of 2% ebselen, 2% auranofin, 2% mupirocin or 2% […] in petroleum jelly (ointment—skin protectant). […]

[14] = in vivo; cited from earlier work
[15] = system: rabbit reticulocyte lysate system (mammalian protein synthesis); test: Mammalian protein synthesis in rabbit reticulocyte lysate system; format: biochemical
From the text: (IC50) of Auranofin in rabbit reticulocyte extract. […] The results are given as means±SD (data without error bars indicate that the SD is too small to be seen).
as §1

E.. coli O157:H7 = test: MIC against G-ve with and without colistin: E. coli O157:H7; format: cell-based
[16] = concentrations significantly below the MIC

For CC(=O)OC[C@H]1O[C@@H]([S-])[C@H](OC(C)=O)[C@@H](OC(C)=O)[C@@H]1OC(C)=O.CCP(CC)CC.[Au+] [Auranofin], the “MIC, colistin (+)” value (K. pneumonia; with sub-inhibitory colistin 0.125 μg/ml) was 0.125 µg/mL, the “MIC, colistin (−)” value (K. pneumonia; without colistin) was 256 µg/mL and the “effect on number of planktonic persister cells” value [1] was “complete eradication of planktonic persister cells”. The “MIC, colistin (+)” value (P. aeruginosa; with sub-inhibitory colistin 0.25 μg/ml) was 0.0312 µg/mL, the “MIC, colistin (−)” value (P. aeruginosa; without colistin) was 256 µg/mL and the MIC50 ([2]; first column per drug) was 0.125 µg/mL. For the same compound, the MIC50 ([2]; second column per drug) was 0.125 µg/mL, the “reduction of intracellular MRSA” value [3] was “superior in reducing intracellular MRSA” and the “IC50 of bacterial translation” value [4] was 0.038 µg/mL. The MIC50 ([5]; first column per drug) was 0.062 µg/mL, the MIC50 ([5]; second column per drug) was 0.062 µg/mL and the “MIC, colistin (−)” value (S. Typhimurium) was 128 µg/mL. The “relationship with conventional antimicrobials in vitro” value [6] was “synergistic relationship”, the “reduction of adherent biofilm” value (S. aureus biofilm) was “superior in reducing adherent biofilms” and the “production of toxin PVL” value [7] was “significantly suppressed toxin production”. For the same compound, the “production of toxin hla” value [7] was “significantly suppressed toxin production”, the “reduction of adherent biofilm” value (S. epidermidis biofilm) was “superior in reducing adherent biofilms” and the “level of IL-6” value [8] was “significantly reduced”. The “level of TNF-α” value [8] was “significantly reduced”, the “level of IL-1β” value ([8]; data not shown) was “significantly reduced” and the “level of MCP-1” value ([8]; data not shown) was “significantly reduced”. For the same compound, the mice survival (MRSA USA300 [9]; oral 0.125 mg/kg once daily) was 40%, the mice survival (MRSA USA300 [9]; oral 0.25 mg/kg once daily) was 80% and the MIC50 ([10]; first column per drug) was 0.062 µg/mL. For the same compound, the MIC50 ([10]; second column per drug) was 0.125 µg/mL, the “MIC90 (MICs at which 90% of MRSA isolates were inhibited)” value ([10]; MRSA isolates) was 0.125 µg/mL and the “MIC, colistin (+)” value (A. baumannii; with sub-inhibitory colistin 0.0625 μg/ml) was 0.25 µg/mL. The “MIC, colistin (−)” value (A. baumannii; without colistin) was 16 µg/mL, the DNA synthesis inhibition (S. aureus; [16]) was “clear dose-dependent disruption” and the “cell wall synthesis inhibition” value (S. aureus; [16]) was “clear dose-dependent disruption”. For the same compound, the protein synthesis inhibition (S. aureus; [16]) was “clear dose-dependent disruption”, the “effect on RNA synthesis” value (S. aureus; up to 4×MIC) was “no significant effect” and the “effect on lipid synthesis” value (S. aureus; up to 4×MIC) was “no significant effect”. For the same compound, the “bacterial load in the liver and spleen” value (MRSA USA300 [11]) was “significantly reduced the bacterial load”, the “MIC, colistin (−)” value [12] was greater than 256 µg/mL and the “bacterial load in MRSA skin lesions” value (MRSA USA300 [13]) was “significantly reduced the bacterial load”. The “clinically achievable blood concentration” value [14] was 2.37 µg/mL, the “inhibition of translation in mammalian protein synthesis” value [15] was “did not inhibit translation” and the “MIC, colistin (+)” value (E.. coli O157:H7; E. coli O157:H7, with sub-inhibitory colistin 0.0625 μg/ml) was 0.0625 µg/mL. The “MIC, colistin (−)” value (E.. coli O157:H7; E. coli O157:H7, without colistin) was 64 µg/mL.
